The results in this text go back to patent US10426850B2, “Collagen mimetic peptides for targeting collagen strands for in vitro and in vivo imaging and therapeutic use” (The Johns Hopkins University, priority 2011, dated 2019).

Data set [1] is described as follows: CD refolding kinetics / triple helix folding rate of CMPs. In kind it is physicochemical. The note with it: after UV exposure; thermal quenching from 80° C. to 25° C. The protocol: Circular dichroism spectroscopy. CD spectra were collected on JASCO 715 spectrophotometer equipped with a JASCO PTC-348 WI temperature controller and quartz cells (0.1 mm path length). CMP solutions (320 μL, 150 μM in 1×PBS) were stored at 4° C. for at least 24 hours before measurement. For photo-decaging, samples were exposed to 365 nm UV light for at least 30 minutes before the 4° C. incubation. The thermal melting studies were performed by measuring the ellipticity at 225 nm with 60° C./hr heating rate. Raw CD signal was normalized to mean residue ellipticity based on the peptide's length and concentration (Biopolymers 95:94-104 (2011)). Melting temperatures (Tm) were determined by fitting the mean residue ellipticity to a two-state model (Org Lett 8:4735-4738 (2006)). […] The CD spectra of intact and MMP-1 cleaved type I collagen (FIG. 12) was measured in 90 μg/mL protein solutions in 20 mM acetic acid buffer at 22° C. The 37° C. thermal stability profile (FIG. 2E, inset) was generated by monitoring the ellipticity at 222 nm immediately after transferring the cuvette to a temperature controlled cuvette holder pre-set to 37° C. The Tm values reported in this study are approximately 10° C. higher than the equilibrium Tm due to high heating rate (60° C./hr) (Biopolymers 73:682-688 (2004)).

Data set [2] has as its target T1, type I collagen films (Rattus norvegicus, UniProt P02454+P02466).
T1 construct: Collagen solution (200 μL, 3.71 mg/mL, type I rat tail, BD Science); purchased BD Science; host or cells: rat tail
Description: Quantification of CF(GPO)9 bound on type I collagen films. The data set is classed as binding. The following applies: UV+, collagenase digestion, standard curve. The protocol: Quantification of CF(GPO)9 (SEQ ID NO: 10) bound on type I collagen films. Following photo-induced binding, CMP-bound collagen films (e.g. the UV+ group of FIG. 10A) were digested with 200 μL of collagenase (Sigma, C0130) solutions (1 mg/mL) in TESCA buffer (50 mM TES buffer with 1.36 mM CaCl2, pH 7.4) for 1 hr at 37° C. The digested solutions were directly used for fluorescence measurement (ex: 489 nm, em: 533 nm). For the standard curve, a series of solutions containing known amounts of CF^NB(GPO)9 (SEQ ID NO: 4) (0 to 0.35 nmol) were applied to blank collagen films and air-dried, followed by collagenase digestion and fluorescence measurement as described above. The amount of bound CF(GPO)9 (SEQ ID NO: 10) was determined by comparing the fluorescence intensity of the digested collagen/CMP solutions with the standard curve, and the binding density was determined by dividing the amount bound by the area of the well. The experiment was performed in triplicate.

For data set [3], the target named is T2, MMP-1 digested type I collagen (Rattus norvegicus, UniProt P02454+P02466).
T2 construct: purchased BD Science (collagen); EMD Millipore (ProMMP-1); host or cells: rat tail; digested in house
Description: Staining of SDS-PAGE gels using photo-decaged CMP. In kind it is binding. The following applies: 6 μM, UV-activation. The protocol:
Staining of SDS-PAGE gels using photo-decaged CF(GPO)9 (SEQ ID NO: 10). MMP-1 digested type I collagen (3.5 μg) was separated by SDS-PAGE (4-12% polyacrylamide gel) under non-reducing condition, along with unstained protein ladder (Life technologies, LC5801). After washing, the gel was soaked in 6 μM CF^NB(GPO)9 (SEQ ID NO: 4) (or CF^SG9P9O9 (SEQ ID NO: 5)) in 1×PBS solution, followed by exposure to 365 nm UV light for 15 min, and 2.5 hr of staining. The gel was washed with deionized water and scanned using Typhoon 9410 Imager (GE Healthcare) with 488 nm fluorescence channel. Afterwards, the protein gel was stained by coomassie brilliant blue and imaged by Gel Doc EQ system (BioRad).

Data set [4] concerns fibronectin and laminin. Description: SDS-PAGE staining by heat activated fluorescent CMP, other ECM proteins. In kind it is binding, bovine (fibronectin), murine (laminin). The note with it: 6 μM, 2 μg protein per lane. From the text: Acid soluble rat-tail type I collagen, bovine type II collagen, and mouse type IV collagen were purchased from BD Bioscience (San Jose, Calif.). Complement component C1q from human serum, fibronectin from bovine plasma, and laminin from Engelbreth-Holm-Swarm murine sarcoma basement membrane were purchased from Sigma-Aldrich. ProMMP-1, and p-aminophenylmercuric acetate were acquired from EMD millipore. Human umbilical vein endothelial cells (HUVECs) and EGM-2 cell growth media were obtained from Lonza (Walkersville, Md.). Precast NuPAGE® Novex 4-12% Bis-Tris Gel (1.0 mm, 12 well), Novex® Sharp unstained protein standard, and SDS-PAGE running buffer, sample buffer, and other SDS-PAGE reagents were purchased from Life Technologies.
SDS-PAGE staining and imaging. Proteins were resolved on NuPAGE® Novex 4-12% bis-tris gels under denaturating conditions using an XCell SureLock™ Mini-Cell electrophoresis system (Life Technologies). NuPAGE® MOPS SDS running buffer containing 50 mM MOPS, 50 mM Tris Base, 0.1% SDS, and 1 mM EDTA (pH 7.7) was used. […] The fluorescence intensities of the protein bands were quantified using GE ImageQuant™ TL software. After fluorescence imaging, all gels were further stained with coomassie brilliant blue (CB) G-250 (Bio-Rad) for 2-3 hr followed by washing, and imaging under white light illumination using a Gel Doc EQ system (BioRad).

T2 sequence (P02454 152-942 limits assumed): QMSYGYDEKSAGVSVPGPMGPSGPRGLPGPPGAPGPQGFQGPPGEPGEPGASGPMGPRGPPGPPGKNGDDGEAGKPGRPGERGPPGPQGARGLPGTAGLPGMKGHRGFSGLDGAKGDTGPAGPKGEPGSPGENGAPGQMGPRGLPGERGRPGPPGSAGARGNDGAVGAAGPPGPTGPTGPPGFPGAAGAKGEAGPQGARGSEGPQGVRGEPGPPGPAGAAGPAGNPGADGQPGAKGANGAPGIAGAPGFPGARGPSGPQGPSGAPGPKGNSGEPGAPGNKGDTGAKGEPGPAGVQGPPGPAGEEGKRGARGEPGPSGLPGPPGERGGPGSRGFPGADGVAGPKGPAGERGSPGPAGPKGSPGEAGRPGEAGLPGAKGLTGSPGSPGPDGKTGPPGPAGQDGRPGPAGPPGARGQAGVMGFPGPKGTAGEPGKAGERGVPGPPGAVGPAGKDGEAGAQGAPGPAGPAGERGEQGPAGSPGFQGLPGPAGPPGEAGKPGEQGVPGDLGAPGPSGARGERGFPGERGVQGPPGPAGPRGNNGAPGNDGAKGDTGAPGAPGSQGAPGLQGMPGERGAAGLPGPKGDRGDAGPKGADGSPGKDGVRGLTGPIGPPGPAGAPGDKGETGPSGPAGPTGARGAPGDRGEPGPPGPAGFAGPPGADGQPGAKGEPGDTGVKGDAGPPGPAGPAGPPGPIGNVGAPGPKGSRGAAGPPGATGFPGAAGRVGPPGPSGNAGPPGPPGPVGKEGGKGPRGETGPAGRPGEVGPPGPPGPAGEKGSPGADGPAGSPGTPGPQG
T2 sequence (P02454 943-1207 limits assumed): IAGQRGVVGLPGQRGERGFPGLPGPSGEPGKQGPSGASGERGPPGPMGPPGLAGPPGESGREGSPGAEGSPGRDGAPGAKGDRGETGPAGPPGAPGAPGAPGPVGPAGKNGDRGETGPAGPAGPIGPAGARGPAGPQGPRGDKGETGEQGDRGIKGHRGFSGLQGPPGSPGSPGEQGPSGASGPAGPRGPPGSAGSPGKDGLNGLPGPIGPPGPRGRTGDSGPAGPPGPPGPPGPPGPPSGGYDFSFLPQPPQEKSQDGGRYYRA
T2 sequence (P02466 86-871 limits assumed): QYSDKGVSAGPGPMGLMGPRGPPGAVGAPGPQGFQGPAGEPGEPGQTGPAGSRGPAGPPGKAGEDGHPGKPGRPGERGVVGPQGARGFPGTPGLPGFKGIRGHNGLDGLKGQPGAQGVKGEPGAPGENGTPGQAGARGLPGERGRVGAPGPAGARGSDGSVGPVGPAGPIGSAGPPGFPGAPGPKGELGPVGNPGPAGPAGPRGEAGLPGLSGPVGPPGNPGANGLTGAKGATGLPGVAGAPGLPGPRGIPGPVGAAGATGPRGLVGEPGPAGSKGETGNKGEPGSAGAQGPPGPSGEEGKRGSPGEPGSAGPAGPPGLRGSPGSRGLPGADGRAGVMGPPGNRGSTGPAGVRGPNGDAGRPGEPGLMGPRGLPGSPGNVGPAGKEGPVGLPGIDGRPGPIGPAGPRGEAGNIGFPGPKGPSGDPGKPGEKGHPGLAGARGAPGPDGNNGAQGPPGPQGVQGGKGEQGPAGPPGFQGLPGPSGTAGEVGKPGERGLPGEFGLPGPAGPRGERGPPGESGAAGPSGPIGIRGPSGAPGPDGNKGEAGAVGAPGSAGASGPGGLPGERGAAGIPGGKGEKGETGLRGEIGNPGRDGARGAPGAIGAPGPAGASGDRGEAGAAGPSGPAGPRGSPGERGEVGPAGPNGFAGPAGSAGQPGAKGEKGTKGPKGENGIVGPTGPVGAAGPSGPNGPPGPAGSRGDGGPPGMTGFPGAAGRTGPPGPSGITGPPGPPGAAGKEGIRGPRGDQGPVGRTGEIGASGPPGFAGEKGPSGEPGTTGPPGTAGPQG
T2 sequence (P02466 872-1125 limits assumed): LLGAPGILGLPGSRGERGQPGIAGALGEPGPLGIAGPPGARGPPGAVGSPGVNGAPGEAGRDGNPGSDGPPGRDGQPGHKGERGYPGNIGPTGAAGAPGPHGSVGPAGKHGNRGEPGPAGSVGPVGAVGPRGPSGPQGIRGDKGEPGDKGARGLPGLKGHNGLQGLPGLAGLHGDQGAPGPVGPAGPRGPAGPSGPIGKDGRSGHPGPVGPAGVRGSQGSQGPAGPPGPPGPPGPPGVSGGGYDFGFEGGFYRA
T1 sequence (P02454 152-1207 limits assumed): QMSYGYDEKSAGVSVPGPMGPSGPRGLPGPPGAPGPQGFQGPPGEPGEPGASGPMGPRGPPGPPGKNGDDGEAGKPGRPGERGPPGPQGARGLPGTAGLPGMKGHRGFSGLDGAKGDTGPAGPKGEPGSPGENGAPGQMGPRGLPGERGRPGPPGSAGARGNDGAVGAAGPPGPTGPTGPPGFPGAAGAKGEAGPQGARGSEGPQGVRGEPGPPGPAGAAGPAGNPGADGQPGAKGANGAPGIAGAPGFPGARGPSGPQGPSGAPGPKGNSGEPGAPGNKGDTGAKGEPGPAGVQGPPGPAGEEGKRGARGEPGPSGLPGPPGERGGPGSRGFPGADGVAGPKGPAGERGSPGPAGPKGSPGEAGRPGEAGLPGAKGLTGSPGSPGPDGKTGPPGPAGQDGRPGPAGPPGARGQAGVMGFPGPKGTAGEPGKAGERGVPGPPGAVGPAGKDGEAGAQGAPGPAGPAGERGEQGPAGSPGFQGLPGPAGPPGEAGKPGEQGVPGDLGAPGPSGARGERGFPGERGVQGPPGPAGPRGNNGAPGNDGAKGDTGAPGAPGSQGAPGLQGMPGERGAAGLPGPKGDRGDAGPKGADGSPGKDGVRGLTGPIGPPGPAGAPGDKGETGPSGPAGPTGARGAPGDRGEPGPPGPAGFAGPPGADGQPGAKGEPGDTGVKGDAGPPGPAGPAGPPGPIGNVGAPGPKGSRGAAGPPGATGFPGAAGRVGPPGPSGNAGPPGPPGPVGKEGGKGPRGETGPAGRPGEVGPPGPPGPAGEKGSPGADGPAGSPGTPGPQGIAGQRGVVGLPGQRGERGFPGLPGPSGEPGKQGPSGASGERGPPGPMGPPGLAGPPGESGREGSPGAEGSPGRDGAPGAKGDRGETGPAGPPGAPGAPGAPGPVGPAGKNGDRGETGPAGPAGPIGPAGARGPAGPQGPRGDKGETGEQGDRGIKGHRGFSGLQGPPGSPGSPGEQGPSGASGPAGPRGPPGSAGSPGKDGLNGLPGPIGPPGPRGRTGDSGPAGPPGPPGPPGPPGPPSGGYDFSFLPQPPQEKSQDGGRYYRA
T1 sequence (P02466 86-1125 limits assumed): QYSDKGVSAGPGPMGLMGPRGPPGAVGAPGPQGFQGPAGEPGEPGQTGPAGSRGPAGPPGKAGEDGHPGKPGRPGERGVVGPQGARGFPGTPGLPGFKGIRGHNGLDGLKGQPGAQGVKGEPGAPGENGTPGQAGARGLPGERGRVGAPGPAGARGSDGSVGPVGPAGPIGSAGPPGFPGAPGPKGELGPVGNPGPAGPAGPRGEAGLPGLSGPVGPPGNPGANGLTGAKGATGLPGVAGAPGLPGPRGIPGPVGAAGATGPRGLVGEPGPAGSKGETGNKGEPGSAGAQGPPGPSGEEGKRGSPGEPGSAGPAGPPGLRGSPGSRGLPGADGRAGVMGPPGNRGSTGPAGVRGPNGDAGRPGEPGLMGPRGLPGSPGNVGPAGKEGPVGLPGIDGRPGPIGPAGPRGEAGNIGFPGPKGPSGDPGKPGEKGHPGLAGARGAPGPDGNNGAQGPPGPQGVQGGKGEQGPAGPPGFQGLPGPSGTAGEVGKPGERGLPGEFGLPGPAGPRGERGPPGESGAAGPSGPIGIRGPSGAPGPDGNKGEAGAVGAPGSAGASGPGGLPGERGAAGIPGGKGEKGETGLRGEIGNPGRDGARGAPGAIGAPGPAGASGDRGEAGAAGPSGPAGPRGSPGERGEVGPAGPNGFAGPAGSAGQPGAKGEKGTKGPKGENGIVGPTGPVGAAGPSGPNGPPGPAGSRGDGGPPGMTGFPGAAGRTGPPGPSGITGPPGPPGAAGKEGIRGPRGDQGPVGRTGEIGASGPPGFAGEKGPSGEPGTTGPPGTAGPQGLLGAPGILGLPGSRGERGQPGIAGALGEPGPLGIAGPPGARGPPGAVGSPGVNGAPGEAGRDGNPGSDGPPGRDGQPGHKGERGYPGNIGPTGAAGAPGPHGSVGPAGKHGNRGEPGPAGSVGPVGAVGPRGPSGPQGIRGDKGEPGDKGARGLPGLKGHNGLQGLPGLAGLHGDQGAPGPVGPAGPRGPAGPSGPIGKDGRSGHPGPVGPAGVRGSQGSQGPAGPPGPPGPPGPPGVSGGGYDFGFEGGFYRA

On to CF-GGG-(GPO)4^NBGPO(GPO)4 [CF^NB(GPO)9], for which the “refolding kinetics (CD 225 nm)” value in data set [1] is listed as “fast refolding kinetics”. In addition, the “density of photo-induced CMP binding to intact collagen” value in data set [2] came out at 0.56±0.03 nmol/cm^2. Also, in data set [3], the “staining of MMP-1 digested collagen bands” value is “able to stain the MMP-1 digested collagen bands” and the “staining of protein ladder bands” value is recorded as “No other bands from the protein ladder were stained”.
Turning to CF-GGG-(GPO)9 [CF(GPO)9], the “staining of fibronectin and laminin bands” value in data set [4] was “no affinity to fibronectin and laminin”.
